Test results reported in patent publication US20200237863A1, “Combination Therapy of Fractionated Radiation and SAPC-DOPS for the Treatment of Tumors” (University of Cincinnati, priority 2017, published 2020).
Residues, ends and D or L forms follow the SMILES beside them. *: point of attachment. Cbz = O=C(OCc1ccccc1)*; CH2F = FC*

How the values were obtained:
[1] = tested on: A2058, cfPac-1 and U87MG cell lines; assay: Cell viability (MTT) assay of serially irradiated cells treated with chemotherapeutic drugs; assay type: cell-based, human; conditions: 5 Gy weekly for multiple weeks, drug 7 days after last irradiation, MTT 72 hr later
Description: Non serially-irradiated cells are designated R0. Media was changed immediately after the irradiation and the cells were split every 3-4 days. Treatments were given 4-7 days following the last 5 Gy irradiation, when the surface PS is still elevated. A) Timeline of the treatment regime. B) Surface PS was determined by Annexin V-FITC staining on Day 4 following the last 5 Gy irradiation. Rx; x=15 for A2058 and 10 for cfPac-1 and U87MG. * p<0.05, ** p<0.01 compared to R0. Shown are the mean and S.D. C-E) Cells were serially irradiated with 5 Gy. (top panel, A2058 cells; middle panel, cfPac-1 cells; bottom panel, U87MG cells) C) 7 days later they were exposed to the indicated doses of radiation and cell viability was determined by MTT assay was performed 72 hr. later. Shown is the % of live cells with 100% as the normalized control for each cell line, * p<0.05. ** p<0.01, compared to R0. D) 7 days after the last 5 Gy irradiation, cells were treated with different doses of gemcitabine (GEM) temozolomide (TMZ) or cisplatin and cell viability was determined by MTT assay was performed 72 hr. later. * p<0.05, ** p<0.01, compared to R0 at the same dose of drug. E.) 7 days following the last 5 Gy irradiation, cells were treated with the indicated doses of SapC-DOPS (1 SapC:7 DOPS, Mol:Mol) and cell viability was determined by MTT assay was performed 72 hr. later. […]

cfPac-1 cells = assay: Flow cytometric analysis of Annexin V-FITC binding (surface PS) after irradiation; assay type: cell-based, human; conditions: cfPac-1 cells irradiated at 10 Gy, 10 μM Z-VAD-fmk, assessed 24 hr later
Description: Unless otherwise stated, cells at 60-80% confluency were irradiated and then, after the appropriate time, were trypsinized, resuspended in complete medium, spun down, and washed once with PBS then resuspended in annexin V staining buffer. Cells (1×10^5) were incubated at room temperature in the dark for 15 minutes in a final volume of 100 μl containing 10 μl Annexin V-FITC (Invitrogen, Carlsbad, Calif.) and 2 μg/ml propidium iodide (PI, BD-Pharmingen, Eugene, Oreg.). Annexin V-FITC binding was measured by flow cytometry after adding 400 μl of annexin V binding buffer, using a BD Fortessa. Data was analyzed with BD FACS Diva. For quantifying the annexin V-FITC signal from living cells, PI positive dead cells were gated out and the annexin V-FITC signal was obtained from PI negative forward scattered, cells.
Cells were grown to 60-80% confluence in 60 mm dishes then exposed to (^137Cs) irradiation with a GammaCell 40 Exactor (Nordion international) at doses of 0, 2, 6, 10 or 16 Gy. The media was changed and the cells were processed for surface PS determination at the indicated times. Mice were irradiated at 10 Gy with an Xstrahl D3100 superficial systems (at 100 kV) with 2 cm cone and projected 1 cm deep.

Row | Compound | sensitivity of serially irradiated cells to chemotherapeutic drugs (MTT cell viability) compared to R0 [1] | radiation-induced surface PS elevation (Annexin V binding) (cfPac-1 cells)
1 | Nc1ccn([C@@H]2O[C@H](CO)[C@@H](O)C2(F)F)c(=O)n1 [gemcitabine] | more resistant | –
2 | N.N.[Cl][Pt][Cl] [cisplatin] | more resistant | –
3 | COC(=O)C[C@H](NC(=O)[C@H](C)NC(=O)[C@@H](NC(=O)OCc1ccccc1)C(C)C)C(=O)CF [Z-VAD fmk] (Cbz-Val-Ala-Asp(OMe)-CH2F) | – | completely eliminated the radiation-induced surface PS elevation
